Assay results from patent US20240181081A1, “Compositions and Methods for Treatment of Myotonic Dystrophy Type 1 with CRISPR/SACAS9” (Vertex Pharmaceuticals Incorporated, priority 2021, published 2024).
Values joined by “and” are separate entries in the source; they are usually repeats but may differ in a detail not shown here. Identical values can stand only once.

Legend:
[1] = test system: CUG RNA foci in primary DM1 patient myoblasts; test: DOUBLE-cut screening: FISH staining of RNA foci in primary DM1 patient myoblasts; format: cell-based, human; conditions: sgRNA pair RNP, 72 hrs post nucleofection; for % of CUG foci free nuclei (DNA-PKi): 3 μM Compound 6 for 48 hrs; for % of CUG foci free nuclei (Vehicle): DMSO 48 hrs
Outline: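 Primary DM1 patient myoblasts nucleofected with paired upstream/downstream sgRNA–SaCas9 RNPs (20 pmol protein, 60 pmol sgRNA each), then treated 48 hrs with DMSO or 3 μM DNA-PK inhibitor. At 72 hrs post nucleofection, CUG foci stained by Cy3-PNA(CAG)5 FISH with MBNL1 co-staining and quantified by high-content confocal imaging.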

[2] = test system: CTG repeat expansion in the 3′ UTR of human DMPK gene; test: DOUBLE-cut screening: CTG repeat excision by loss-of-signal ddPCR in primary DM1 patient myoblasts; format: cell-based; conditions: sgRNA pair RNP, mean of upstream and downstream ddPCR assays; for % of CTG repeat excision efficiency by ddPCR (DNA-PKi): 3 μM Compound 6 for 48 hrs; for % of CTG repeat excision efficiency by ddPCR (Vehicle): DMSO 48 hrs
Outline: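 Paired upstream/downstream sgRNAs, each as RNP with recombinant SaCas9 (20 pmol protein:60 pmol sgRNA), mixed 1:1 and nucleofected into primary DM1 myoblasts; cells then given DMSO or 3 μM DNA-PKi Compound 6 for 48 hrs. Genomic DNA taken 72 hrs post-nucleofection; excision is mean of upstream and downstream loss-of-signal ddPCR, normalized to DMPK exon 1 reference.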

| Substance | % of CUG foci free nuclei (DNA-PKi) [1] | % of CUG foci free nuclei (Vehicle) [1] | % of CTG repeat excision efficiency by ddPCR (DNA-PKi) [2] | % of CTG repeat excision efficiency by ddPCR (Vehicle) [2] |
| --- | --- | --- | --- | --- |
| SaU3 + SaD13: SaCas9 sgRNA pair, SEQ ID NOs: 3 and 21 (guide 1 ACTCCGGGGCCCCGTTGGAAGA; guide 2 CCCAACAACCCCAATCCACGTT; listed as DNA, chemistry not fully specified) | 74.02% | 38.07% | 57.82% | 30.34% |
| SaU3 + SaD15: SaCas9 sgRNA pair, SEQ ID NOs: 3 and 23 (guide 1 ACTCCGGGGCCCCGTTGGAAGA; guide 2 GACAATAAATACCGAGGAATGT; listed as DNA, chemistry not fully specified) | 86.64% | 74.00% | 65.28% | 37.42% |
| SaU3 + SaD17: SaCas9 sgRNA pair, SEQ ID NOs: 3 and 25 (guide 1 ACTCCGGGGCCCCGTTGGAAGA; guide 2 TTTATTCGCGAGGGTCGGGGGT; listed as DNA, chemistry not fully specified) | 77.22% | 53.10% | 56.80% | 31.18% |
| SaU3 + SaD18: SaCas9 sgRNA pair, SEQ ID NOs: 3 and 26 (guide 1 ACTCCGGGGCCCCGTTGGAAGA; guide 2 GGGCCTTTTATTCGCGAGGGTC; listed as DNA, chemistry not fully specified) | 71.73% | 33.15% | 50.13% | 21.51% |
| SaU3 + SaD19: SaCas9 sgRNA pair, SEQ ID NOs: 3 and 27 (guide 1 ACTCCGGGGCCCCGTTGGAAGA; guide 2 AGGACCCCCACCCCCGACCCTC; listed as DNA, chemistry not fully specified) | 81.67% | 57.16% | 53.36% | 32.67% |
| SaU3 + SaD20: SaCas9 sgRNA pair, SEQ ID NOs: 3 and 28 (guide 1 ACTCCGGGGCCCCGTTGGAAGA; guide 2 AGATGGAGGGCCTTTTATTCGC; listed as DNA, chemistry not fully specified) | 83.99% | 72.56% | 64.44% | 40.12% |
| SaU4 + SaD3: SaCas9 sgRNA pair, SEQ ID NOs: 4 and 11 (guide 1 CCAGTTCACAACCGCTCCGAGC; guide 2 CAACGATAGGTGGGGGTGCGTG; listed as DNA, chemistry not fully specified) | 80.39% | 60.98% | 56.38% | 44.46% |
| SaU4 + SaD6: SaCas9 sgRNA pair, SEQ ID NOs: 4 and 14 (guide 1 CCAGTTCACAACCGCTCCGAGC; guide 2 CTTTTGCCAAACCCGCTTTTTC; listed as DNA, chemistry not fully specified) | 67.36% | 37.76% | 48.99% | 28.23% |
| SaU4 + SaD7: SaCas9 sgRNA pair, SEQ ID NOs: 4 and 15 (guide 1 CCAGTTCACAACCGCTCCGAGC; guide 2 GGGGCGCGGGATCCCCGAAAAA; listed as DNA, chemistry not fully specified) | 78.79% | 58.50% | 55.59% | 39.17% |
| SaU4 + SaD11: SaCas9 sgRNA pair, SEQ ID NOs: 4 and 19 (guide 1 CCAGTTCACAACCGCTCCGAGC; guide 2 CAAAACGTGGATTGGGGTTGTT; listed as DNA, chemistry not fully specified) | 78.29% | 58.71% | 54.55% | 36.98% |
| SaU4 + SaD12: SaCas9 sgRNA pair, SEQ ID NOs: 4 and 20 (guide 1 CCAGTTCACAACCGCTCCGAGC; guide 2 TCAGTGCATCCAAAACGTGGAT; listed as DNA, chemistry not fully specified) | 87.22% | 82.10% | 59.06% | 42.13% |
| SaU4 + SaD13: SaCas9 sgRNA pair, SEQ ID NOs: 4 and 21 (guide 1 CCAGTTCACAACCGCTCCGAGC; guide 2 CCCAACAACCCCAATCCACGTT; listed as DNA, chemistry not fully specified) | 73.71% | 43.83% | 54.46% | 32.38% |
| SaU4 + SaD15: SaCas9 sgRNA pair, SEQ ID NOs: 4 and 23 (guide 1 CCAGTTCACAACCGCTCCGAGC; guide 2 GACAATAAATACCGAGGAATGT; listed as DNA, chemistry not fully specified) | 85.73% | 79.84% | 58.99% | 39.70% |
| SaU4 + SaD17: SaCas9 sgRNA pair, SEQ ID NOs: 4 and 25 (guide 1 CCAGTTCACAACCGCTCCGAGC; guide 2 TTTATTCGCGAGGGTCGGGGGT; listed as DNA, chemistry not fully specified) | 79.31% | 60.96% | 55.51% | 35.01% |
| SaU4 + SaD18: SaCas9 sgRNA pair, SEQ ID NOs: 4 and 26 (guide 1 CCAGTTCACAACCGCTCCGAGC; guide 2 GGGCCTTTTATTCGCGAGGGTC; listed as DNA, chemistry not fully specified) | 69.76% | 36.81% | 45.55% | 26.25% |
| SaU4 + SaD19: SaCas9 sgRNA pair, SEQ ID NOs: 4 and 27 (guide 1 CCAGTTCACAACCGCTCCGAGC; guide 2 AGGACCCCCACCCCCGACCCTC; listed as DNA, chemistry not fully specified) | 80.80% | 67.92% | 50.21% | 36.41% |
| SaU4 + SaD20: SaCas9 sgRNA pair, SEQ ID NOs: 4 and 28; printed twice in Table 4 (guide 1 CCAGTTCACAACCGCTCCGAGC; guide 2 AGATGGAGGGCCTTTTATTCGC; listed as DNA, chemistry not fully specified) | 84.77% and 83.56% | 59.76% and 81.47% | 65.25% and 59.19% | 53.12% and 52.49% |
| SaU7 + SaD4: SaCas9 sgRNA pair, SEQ ID NOs: 7 and 12 (guide 1 CGCGGCCGGCGAACGGGGCTCG; guide 2 ACTTTGCGAACCAACGATAGGT; listed as DNA, chemistry not fully specified) | 87.34% | 74.84% | 73.99% | 57.96% |
| SaU7 + SaD5: SaCas9 sgRNA pair, SEQ ID NOs: 7 and 13 (guide 1 CGCGGCCGGCGAACGGGGCTCG; guide 2 GGGTTTGGCAAAAGCAAATTTC; listed as DNA, chemistry not fully specified) | 82.27% | 64.24% | 69.71% | 50.76% |
| SaU7 + SaD6: SaCas9 sgRNA pair, SEQ ID NOs: 7 and 14 (guide 1 CGCGGCCGGCGAACGGGGCTCG; guide 2 CTTTTGCCAAACCCGCTTTTTC; listed as DNA, chemistry not fully specified) | 67.73% | 24.89% | 55.71% | 22.54% |
| SaU7 + SaD7: SaCas9 sgRNA pair, SEQ ID NOs: 7 and 15 (guide 1 CGCGGCCGGCGAACGGGGCTCG; guide 2 GGGGCGCGGGATCCCCGAAAAA; listed as DNA, chemistry not fully specified) | 85.03% | 41.68% | 64.88% | 32.55% |
